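Growth conditions: 96-well plates. Treatment: test compound, 48 hours, 5 concentrations. Analysis: linear interpolation between bracketing concentrations; unreached endpoints set to highest concentration. GI50 is the concentration that inhibits growth by half. TGI: concentration producing complete growth inhibition.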
Tests used:
Assay in all cases: NCI-60 cell line screen, 48 h
SK-OV-3 ovarian = tested on: SK-OV-3 ovarian
MOLT-4 leukemia = tested on: MOLT-4 leukemia
MDA-MB-435 = tested on: MDA-MB-435
KM12 colon = tested on: KM12 colon
A498 renal = tested on: A498 renal
HCC-2998 colon = tested on: HCC-2998 colon
A549 NSCLC = tested on: A549 NSCLC
SNB-19 CNS = tested on: SNB-19 CNS
IGROV1 ovarian = tested on: IGROV1 ovarian
HCT-15 colon = tested on: HCT-15 colon
UO-31 renal = tested on: UO-31 renal
PC-3 prostate = tested on: PC-3 prostate
ACHN renal = tested on: ACHN renal
SNB-75 CNS = tested on: SNB-75 CNS
SK-MEL-28 melanoma = tested on: SK-MEL-28 melanoma
HL-60(TB) leukemia = tested on: HL-60(TB) leukemia
SF-295 CNS = tested on: SF-295 CNS
T-47D breast = tested on: T-47D breast
SK-MEL-5 melanoma = tested on: SK-MEL-5 melanoma
CAKI-1 renal = tested on: CAKI-1 renal
NCI-H23 lung = tested on: NCI-H23 lung
OVCAR-8 ovarian = tested on: OVCAR-8 ovarian
HCT-116 colon = tested on: HCT-116 colon
UACC-62 melanoma = tested on: UACC-62 melanoma
COLO 205 colon = tested on: COLO 205 colon
SK-MEL-2 melanoma = tested on: SK-MEL-2 melanoma
MDA-MB-231 breast = tested on: MDA-MB-231 breast
SF-539 CNS = tested on: SF-539 CNS

N#C/C(=C/c1cccs1)c1cccs1
GI50 (SK-OV-3 ovarian): > 100 µM | TGI (SK-OV-3 ovarian): > 100 µM | GI50 (MOLT-4 leukemia): > 100 µM | TGI (MOLT-4 leukemia): > 100 µM | GI50 (MDA-MB-435): > 100 µM | TGI (MDA-MB-435): > 100 µM | GI50 (KM12 colon): > 100 µM | TGI (KM12 colon): > 100 µM | GI50 (A498 renal): > 100 µM | TGI (A498 renal): > 100 µM | GI50 (HCC-2998 colon): > 100 µM | TGI (HCC-2998 colon): > 100 µM | GI50 (A549 NSCLC): > 100 µM | TGI (A549 NSCLC): > 100 µM | GI50 (SNB-19 CNS): > 100 µM | TGI (SNB-19 CNS): > 100 µM | GI50 (IGROV1 ovarian): > 100 µM | TGI (IGROV1 ovarian): > 100 µM | GI50 (HCT-15 colon): > 100 µM | TGI (HCT-15 colon): > 100 µM | GI50 (UO-31 renal): > 100 µM | TGI (UO-31 renal): > 100 µM | GI50 (PC-3 prostate): > 100 µM | TGI (PC-3 prostate): > 100 µM | GI50 (ACHN renal): > 100 µM | TGI (ACHN renal): > 100 µM | GI50 (SNB-75 CNS): > 100 µM | TGI (SNB-75 CNS): > 100 µM | GI50 (SK-MEL-28 melanoma): > 100 µM | TGI (SK-MEL-28 melanoma): > 100 µM | GI50 (HL-60(TB) leukemia): > 100 µM | TGI (HL-60(TB) leukemia): > 100 µM | GI50 (SF-295 CNS): > 100 µM | TGI (SF-295 CNS): > 100 µM | GI50 (T-47D breast): 51.5 µM | TGI (T-47D breast): > 100 µM | GI50 (SK-MEL-5 melanoma): > 100 µM | TGI (SK-MEL-5 melanoma): > 100 µM | GI50 (CAKI-1 renal): > 100 µM | TGI (CAKI-1 renal): > 100 µM | GI50 (NCI-H23 lung): > 100 µM | TGI (NCI-H23 lung): > 100 µM | GI50 (OVCAR-8 ovarian): > 100 µM | TGI (OVCAR-8 ovarian): > 100 µM | GI50 (HCT-116 colon): > 100 µM | TGI (HCT-116 colon): > 100 µM | GI50 (UACC-62 melanoma): > 100 µM | TGI (UACC-62 melanoma): > 100 µM | GI50 (COLO 205 colon): > 100 µM | TGI (COLO 205 colon): > 100 µM | GI50 (SK-MEL-2 melanoma): > 100 µM | TGI (SK-MEL-2 melanoma): > 100 µM | GI50 (MDA-MB-231 breast): > 100 µM | TGI (MDA-MB-231 breast): > 100 µM | GI50 (SF-539 CNS): > 100 µM

Reference: PubChem BioAssay (NCI)
